{"source": "patent US8586548B2", "about": "“NAP alpha-aminoisobutyric acid analog with neuroprotective activity” (Ramot at Tel-Aviv University, Ltd., priority 2009, dated 2013)", "molecules": {"B1": {"name": "recombinant ADNP: recombinant activity-dependent neuroprotective protein (protein, UniProt Q9H2P0 1-1102, looked up)", "Activity-dependent …": "MFQLPVNNLGSLRKARKTVKKILSDIGLEYCKEHIEDFKQFEPNDFYLKNTTWEDVGLWDPSLTKNQDYRTKPFCCSACPFSSKFFSAYKSHFRNVHSEDFENRILLNCPYCTFNADKKTLETHIKIFHAPNASAPSSSLSTFKDKNKNDGLKPKQADSVEQAVYYCKKCTYRDPLYEIVRKHIYREHFQHVAAPYIAKAGEKSLNGAVPLGSNAREESSIHCKRCLFMPKSYEALVQHVIEDHERIGYQVTAMIGHTNVVVPRSKPLMLIAPKPQDKKSMGLPPRIGSLASGNVRSLPSQQMVNRLSIPKPNLNSTGVNMMSSVHLQQNNYGVKSVGQGYSVGQSMRLGLGGNAPVSIPQQSQSVKQLLPSGNGRSYGLGSEQRSQAPARYSLQSANASSLSSGQLKSPSLSQSQASRVLGQSSSKPAAAATGPPPGNTSSTQKWKICTICNELFPENVYSVHFEKEHKAEKVPAVANYIMKIHNFTSKCLYCNRYLPTDTLLNHMLIHGLSCPYCRSTFNDVEKMAAHMRMVHIDEEMGPKTDSTLSFDLTLQQGSHTNIHLLVTTYNLRDAPAESVAYHAQNNPPVPPKPQPKVQEKADIPVKSSPQAAVPYKKDVGKTLCPLCFSILKGPISDALAHHLRERHQVIQTVHPVEKKLTYKCIHCLGVYTSNMTASTITLHLVHCRGVGKTQNGQDKTNAPSRLNQSPSLAPVKRTYEQMEFPLLKKRKLDDDSDSPSFFEEKPEEPVVLALDPKGHEDDSYEARKSFLTKYFNKQPYPTRREIEKLAASLWLWKSDIASHFSNKRKKCVRDCEKYKPGVLLGFNMKELNKVKHEMDFDAEWLFENHDEKDSRVNASKTADKKLNLGKEDDSSSDSFENLEEESNESGSPFDPVFEVEPKISNDNPEEHVLKVIPEDASESEEKLDQKEDGSKYETIHLTEEPTKLMHNASDSEVDQDDVVEWKDGASPSESGPGSQQVSDFEDNTCEMKPGTWSDESSQSEDARSSKPAAKKKATMQGDREQLKWKNSSYGKVEGFWSKDQSQWKNASENDERLSNPQIEWQNSTIDSEDGEQFDNMTDGVAEPMHGSLAGVKLSSQQA"}}, "key": {"[1]": {"tested_on": "primary hippocampal neurons from presenilin 1 (PSI) mutant knock-in mice", "settings": "pretreatment; cited from earlier work"}, "[2]": {"target": "VQIVYK (SEQ ID NO:10) peptide derived from tau (Homo sapiens, UniProt P10636)", "assay": "In vitro tau-like VQIVYK aggregation assay (Thioflavin S)", "type": "biochemical", "method": "In the presence of polyglutamic acid (or heparin), VQIVYK (SEQ ID NO:10) aggregates which can be further detected by Thioflavin S (excitation 485 nm and emission 535) with emission intensity greatly increasing.\nFirst, different concentrations of polyglutamic acid (0, 100 μM, 250 μM, and 400 μM) VQIVYK (SEQ ID NO:10) and either […] (NH4Ac) 50 mM pH 6.5 or MOPS 20 mM pH 6.5 and Thioflavin S 5 μM were mixed together and incubated at room temperature. The extent of aggregation was read at excitation 485 nm and emission 535 nm using the infinite 200 system with the Magellan program.\nThe peptides were added at a range of concentrations (10^−17-10^−9 M) and the extent of aggregation of 100 μM VQIVYK (SEQ ID NO:10) was tested in the presence of polyglutamate 250 μM in MOPS 20 μM, pH 6.5 for 7 days.\nIn order to avoid reading self peptide aggregation as VQIVYK aggregation, for each peptide concentration, the fluorescence of the peptide solution without VQIVYK was subtracted from the fluorescence of each peptide concentration containing VQIVYK."}, "[3]": {"tested_on": "rat cerebral cortical neurons", "settings": "cited from earlier work"}, "[4]": {"tested_on": "beta amyloid peptide (1-42) toxicity", "settings": "cited from earlier work"}, "[5]": {"tested_on": "newborn apolipoprotein E deficient mice", "settings": "newborn apolipoprotein E deficient mice subjected to hypoxia; cited from earlier work"}, "[6]": {"tested_on": "fibroblast-like cells and neuronal-like cells", "settings": "cited from earlier work"}, "[7]": {"settings": "intranasal administration to rats, dogs or humans; cited from earlier work"}, "[8]": {"settings": "intranasal administration in the rat; cited from earlier work"}, "[9]": {"tested_on": "beta amyloid peptide 25-35 neurotoxicity", "settings": "cited from earlier work"}}, "note": "Where two headings read alike, the source gives them in different places.", "data": [{"molecule": "SALLRSIPA (synthetic activity-dependent neuroprotective protein (ADNP) activity dependent neurotrophic factor 1 (ADNF-1) active core site, ADNF-9)", "values": [{"measurement": "protection of neurons with increased vulnerability to excitotoxicity", "setting": "[1]", "value": "protected by pretreatment with ADNF-9"}]}, {"molecule": "Asn-Ala-Pro-Val-Ser-Ile-Pro-Gln [NAP]", "values": [{"measurement": "inhibition of tau aggregation at 10^−13M", "setting": "[2]; 100 μM VQIVYK, polyglutamate 250 μM, MOPS pH 6.5, 7 days, FIG. 4, p<0.0005 vs. control", "value": "the effect of NAP seems to diminish"}, {"measurement": "prevention of tau aggregation (overall)", "setting": "[2]; peptides at 10^−17-10^−9 M", "value": "effective for preventing tau aggregation"}, {"measurement": "protection against beta amyloid (25-35)", "setting": "[3]; neuronal-enriched cultures", "value": "protected against beta amyloid (25-35)"}, {"measurement": "protection against beta amyloid (25-35) toxicity", "setting": "[3]; neurons seeded on a bed of astrocytes", "value": "protect against beta amyloid (amino acids 25-35) toxicity"}, {"measurement": "protection against beta amyloid peptide (1-42) toxicity", "setting": "[4]", "value": "protection against the toxic beta amyloid peptide (1-42)"}, {"measurement": "neurodevelopment", "setting": "[5]", "value": "enhances neurodevelopment"}, {"measurement": "protection against oxidative stress", "setting": "[6]; fibroblast-like cells", "value": "did not protect fibroblast-like cells"}, {"measurement": "protection against oxidative stress", "setting": "[6]; neuronal-like cells", "value": "did protect neuronal-like cells"}, {"measurement": "plasma levels", "setting": "[7]", "value": "measurable plasma levels"}, {"measurement": "appearance in plasma", "setting": "[8]", "value": "rapid appearance in plasma"}]}, {"molecule": "B1", "values": [{"measurement": "neuroprotection in vitro against severe oxidative stress and beta amyloid peptide 25-35", "setting": "[9]", "value": "neuroprotective in vitro"}]}]}
